Test [1] concerns the target Carbonic anhydrase 5A, mitochondrial (Homo sapiens, UniProt P35218). The test is described as follows: Inhibition of human carbonic anhydrase-5A preincubated for 15 mins by stopped-flow CO2 hydration assay.
For the next test, the target named is Carbonic anhydrase 9 (Homo sapiens, UniProt Q16790). The test is described as follows: Inhibition of human carbonic anhydrase-9 preincubated for 15 mins by stopped-flow CO2 hydration assay.

Sequence of Carbonic anhydrase 5A, mitochondrial (P35218 whole entry): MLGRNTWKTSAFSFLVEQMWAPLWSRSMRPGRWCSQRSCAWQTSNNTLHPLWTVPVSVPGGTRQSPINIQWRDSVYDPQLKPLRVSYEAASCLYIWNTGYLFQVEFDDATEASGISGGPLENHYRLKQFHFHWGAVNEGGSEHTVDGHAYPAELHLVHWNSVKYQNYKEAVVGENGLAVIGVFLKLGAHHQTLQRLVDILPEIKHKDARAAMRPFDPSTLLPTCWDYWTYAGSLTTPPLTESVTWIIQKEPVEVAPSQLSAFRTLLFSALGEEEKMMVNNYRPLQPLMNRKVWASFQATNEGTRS

Turning to `COc1cc(CCNS(N)(=O)=O)cc(OC)c1OC`, the inhibitory constant (Ki) in test [1] was greater than 50000 nM; at Carbonic anhydrase 9 it was 221 nM.
As to `COc1ccc(CCNS(N)(=O)=O)cc1`, the inhibition constant Ki worked out at 3250 nM in test [1] and 376 nM on Carbonic anhydrase 9.
On to `COc1ccccc1CCNS(N)(=O)=O`, for which the inhibition constant (Ki) was 3340 nM in test [1] and 41 nM on Carbonic anhydrase 9.
As to `COc1cccc(CCNS(N)(=O)=O)c1OC`, the inhibition constant Ki (in test [1]; at Carbonic anhydrase 9) was greater than 50000 nM each time.
In the case of `COc1ccc(CCNS(N)(=O)=O)cc1OC`, the Ki in test [1] is 2280 nM; at Carbonic anhydrase 9 it was 92 nM.

One may read the Ki as the equilibrium dissociation constant of an inhibitor or competing ligand from its target.

These data come from ChEMBL document CHEMBL2385061, “Synthesis and carbonic anhydrase inhibitory properties of sulfamides structurally related to dopamine” (Bioorg Med Chem, 2013).
